# Measured values taken from PubChem BioAssay (NCI).
#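 All cell lines were grown in 96-well plates and treated with compound for 48 hours. TGI denotes the concentration required for complete inhibition of growth.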
# Columns and labels:
# Assay in all cases: NCI-60 cell line screen, 48 h
# EKVX NSCLC = tested on: EKVX NSCLC
# HL-60(TB) leukemia = tested on: HL-60(TB) leukemia
# NCI-H226 lung = tested on: NCI-H226 lung
# MDA-MB-435 = tested on: MDA-MB-435
# HT29 colon = tested on: HT29 colon
# SNB-75 CNS = tested on: SNB-75 CNS
# SW-620 colon = tested on: SW-620 colon
# HOP-62 NSCLC = tested on: HOP-62 NSCLC
# HCT-15 colon = tested on: HCT-15 colon
# RPMI-8226 leukemia = tested on: RPMI-8226 leukemia
# LOX IMVI melanoma = tested on: LOX IMVI melanoma
# SF-539 CNS = tested on: SF-539 CNS
# CCRF-CEM leukemia = tested on: CCRF-CEM leukemia
# DU-145 prostate = tested on: DU-145 prostate
# IGROV1 ovarian = tested on: IGROV1 ovarian
# OVCAR-5 ovarian = tested on: OVCAR-5 ovarian
# SN12C renal = tested on: SN12C renal
# SK-OV-3 ovarian = tested on: SK-OV-3 ovarian
# SR leukemia = tested on: SR leukemia
# KM12 colon = tested on: KM12 colon
# 786-0 renal = tested on: 786-0 renal
# COLO 205 colon = tested on: COLO 205 colon
# NCI-H23 lung = tested on: NCI-H23 lung
# U251 CNS = tested on: U251 CNS
# BT-549 breast = tested on: BT-549 breast
# K-562 leukemia = tested on: K-562 leukemia
# UACC-62 melanoma = tested on: UACC-62 melanoma
# UACC-257 melanoma = tested on: UACC-257 melanoma
# OVCAR-4 ovarian = tested on: OVCAR-4 ovarian
# NCI/ADR-RES ovarian = tested on: NCI/ADR-RES ovarian
# PC-3 prostate = tested on: PC-3 prostate
# SF-295 CNS = tested on: SF-295 CNS
# HOP-92 NSCLC = tested on: HOP-92 NSCLC
# OVCAR-8 ovarian = tested on: OVCAR-8 ovarian
# A549 NSCLC = tested on: A549 NSCLC
# SK-MEL-28 melanoma = tested on: SK-MEL-28 melanoma
# SF-268 CNS = tested on: SF-268 CNS
# SNB-19 CNS = tested on: SNB-19 CNS
# T-47D breast = tested on: T-47D breast
# UO-31 renal = tested on: UO-31 renal
# MOLT-4 leukemia = tested on: MOLT-4 leukemia
# MALME-3M melanoma = tested on: MALME-3M melanoma
# HCT-116 colon = tested on: HCT-116 colon
# A498 renal = tested on: A498 renal
# NCI-H522 lung = tested on: NCI-H522 lung
# HS 578T breast = tested on: HS 578T breast
# NCI-H460 lung = tested on: NCI-H460 lung
# MDA-MB-231 breast = tested on: MDA-MB-231 breast
# RXF 393 renal = tested on: RXF 393 renal
# MCF7 breast = tested on: MCF7 breast
# MDA-N = tested on: MDA-N
# TK-10 renal = tested on: TK-10 renal
# OVCAR-3 ovarian = tested on: OVCAR-3 ovarian
# M14 melanoma = tested on: M14 melanoma
# CAKI-1 renal = tested on: CAKI-1 renal
structure (smiles),measurement,setting,value
O=C1CSC(c2ccccc2O)N1c1ccc(-c2ccc(-n3c(-c4ccccc4)nc4ccccc4c3=O)cc2)cc1 (stereo not given),TGI,EKVX NSCLC,> 100 µM
same,TGI,HL-60(TB) leukemia,> 100 µM
same,TGI,NCI-H226 lung,> 100 µM
same,TGI,MDA-MB-435,> 100 µM
same,TGI,HT29 colon,28.7 µM
same,TGI,SNB-75 CNS,> 100 µM
same,TGI,SW-620 colon,> 100 µM
same,TGI,HOP-62 NSCLC,> 100 µM
same,TGI,HCT-15 colon,> 100 µM
same,TGI,RPMI-8226 leukemia,> 100 µM
same,TGI,LOX IMVI melanoma,77.4 µM
same,TGI,SF-539 CNS,> 100 µM
same,TGI,CCRF-CEM leukemia,> 100 µM
same,TGI,DU-145 prostate,> 100 µM
same,TGI,IGROV1 ovarian,> 100 µM
same,TGI,OVCAR-5 ovarian,> 100 µM
same,TGI,SN12C renal,> 100 µM
same,TGI,SK-OV-3 ovarian,> 100 µM
same,TGI,SR leukemia,> 100 µM
same,TGI,KM12 colon,52.3 µM
same,TGI,786-0 renal,60.9 µM
same,TGI,COLO 205 colon,44.9 µM
same,TGI,NCI-H23 lung,> 100 µM
same,TGI,U251 CNS,> 100 µM
same,TGI,BT-549 breast,55.7 µM
same,TGI,K-562 leukemia,> 100 µM
same,TGI,UACC-62 melanoma,> 100 µM
same,TGI,UACC-257 melanoma,> 100 µM
same,TGI,OVCAR-4 ovarian,> 100 µM
same,TGI,NCI/ADR-RES ovarian,> 100 µM
same,TGI,PC-3 prostate,94.9 µM
same,TGI,SF-295 CNS,54.2 µM
same,TGI,HOP-92 NSCLC,> 100 µM
same,TGI,OVCAR-8 ovarian,> 100 µM
same,TGI,A549 NSCLC,77.8 µM
same,TGI,SK-MEL-28 melanoma,> 100 µM
same,TGI,SF-268 CNS,> 100 µM
same,TGI,SNB-19 CNS,> 100 µM
same,TGI,T-47D breast,> 100 µM
same,TGI,UO-31 renal,> 100 µM
same,TGI,MOLT-4 leukemia,> 100 µM
same,TGI,MALME-3M melanoma,49.3 µM
same,TGI,HCT-116 colon,> 100 µM
same,TGI,A498 renal,> 100 µM
same,TGI,NCI-H522 lung,44.7 µM
same,TGI,HS 578T breast,> 100 µM
same,TGI,NCI-H460 lung,> 100 µM
same,TGI,MDA-MB-231 breast,> 100 µM
same,TGI,RXF 393 renal,91.9 µM
same,TGI,MCF7 breast,> 100 µM
same,TGI,MDA-N,> 100 µM
same,TGI,TK-10 renal,71 µM
same,TGI,OVCAR-3 ovarian,> 100 µM
same,TGI,M14 melanoma,> 100 µM
same,TGI,CAKI-1 renal,69.1 µM
